Assay results as given in US20240382460A1, “Compositions and Methods for Preventing or Improving Premature Skin Aging” (NANJING NUTRABUILDING BIO-TECH CO., LTD., priority 2022, published 2024).

Key:
[1] = tested on: normal human dermal fibroblasts (NHDF); assay: Cell viability (WST-8) of UVA-irradiated fibroblasts; assay type: cell-based; conditions: light or radiation study, irradiated conditions UVA 4 J/cm^2, read-out: Viability (WST-8), % Irradiated control
Experimental: (§1) The normal human dermal fibroblasts (NHDF) were incubated for 16 days, with ultraviolet light exposure three times a day. For the experimental group the cells were treated using medium containing 0.5, 3, 30 μM of ergothioneine.
(§2) Deletions in mtDNA were quantified using qPCR. The 522 bp fragment represents the amount of mtDNA with deletions, whereas the 262 bp fragment reflects the quantity of intact mtDNA, Relative intensity (AU) is typically used to describe the intensity of the fluorescent signal, and its magnitude is proportional to the number of fragments measured. And cell activity was analyzed using WST-8.

[2] = animals and humans, even at high doses; cited from earlier work
[3] = tested on: normal human dermal fibroblasts (NHDF); assay: UV-induced mtDNA common deletion (Cdel) in fibroblasts, PCR; assay type: cell-based; conditions: for reduction in Cdel incidence compared to the irradiated control group: UV-irradiated NHDF; for Nest PCR - deleted mtDNA, % Irradiated control / Nest PCR - deleted mtDNA, Relative Intensity / PCR on mtDNA (262 bp) long fragment, % Irradiated control / PCR on mtDNA (262 bp) long fragment, Relative Intensity: irradiated conditions UVA 4 J/cm^2
Experimental: as §1, §2
FIG. 2 depicts the effect of compound ergothioneine on the UV-induced mtDNA common deletion (Cdel) in fibroblasts—migration of PCR products (262 bp fragment=total mtDNA without Cdel; 522 bp fragment=mtDNA with Cdel) on 1.5% agarose gel.

C[N+](C)(C)[C@@H](Cc1c[nH]c(=S)[nH]1)C(=O)[O-] [Ergothioneine, ergothioneine]
viability at 0.5 µM ([1]; 0.5 μM): 100%
viability at 3 µM ([1]; 3 μM): 96%
viability at 30 µM ([1]; 30 μM): 96%
toxicity or adverse effects associated with administration [2]: no toxicity or adverse effects
reduction in Cdel incidence compared to the irradiated control group ([3]; 0.5 μM): 56%
Nest PCR - deleted mtDNA, % Irradiated control ([3]; 0.5 μM): 56%
Nest PCR - deleted mtDNA, Relative Intensity ([3]; 0.5 μM): 45153 AU
PCR on mtDNA (262 bp) long fragment, % Irradiated control ([3]; 0.5 μM): 120%
PCR on mtDNA (262 bp) long fragment, Relative Intensity ([3]; 0.5 μM): 663197 AU
reduction in Cdel incidence compared to the irradiated control group ([3]; 3 μM): 67%
Nest PCR - deleted mtDNA, % Irradiated control ([3]; 3 μM): 33%
Nest PCR - deleted mtDNA, Relative Intensity ([3]; 3 μM): 26636 AU
PCR on mtDNA (262 bp) long fragment, % Irradiated control ([3]; 3 μM): 110%
PCR on mtDNA (262 bp) long fragment, Relative Intensity ([3]; 3 μM): 606349 AU
reduction in Cdel incidence compared to the irradiated control group ([3]; 30 μM): 75%
Nest PCR - deleted mtDNA, % Irradiated control ([3]; 30 μM): 25%
Nest PCR - deleted mtDNA, Relative Intensity ([3]; 30 μM): 20645 AU
PCR on mtDNA (262 bp) long fragment, % Irradiated control ([3]; 30 μM): 118%
PCR on mtDNA (262 bp) long fragment, Relative Intensity ([3]; 30 μM): 652512 AU
